In patent US9850283B2, “Macrocyclic inhibitors of the PD-1/PD-L1 and CD80(B7-1)/PD-L1 protein/protein interactions” (BRISTOL-MYERS SQUIBB COMPANY, priority 2013, dated 2017):
Read-outs that look alike come from different tables or passages of the source. Positions of bridges follow the written chain, without caps; N, C: chain ends. Non-standard residues stand in square brackets, D forms with d. Residues, ends and D or L forms follow the SMILES beside them. ξ: configuration not given here. Phe(F5) = N[C@@H](Cc1c(F)c(F)c(F)c(F)c1F)C(=O)O; Phe(4-CH2NH2) = NCc1ccc(C[C@H](N)C(=O)O)cc1; Phe(3-F) = N[C@@H](Cc1cccc(F)c1)C(=O)O; Phe(4-F) = N[C@@H](Cc1ccc(F)cc1)C(=O)O; d(cisHyp) = O=C(O)[C@H]1C[C@@H](O)CN1; Bta = N[C@@H](Cc1csc2ccccc12)C(=O)O; ξPro(4R-OH) = O=C(O)C1C[C@@H](O)CN1; Hyp = O=C(O)[C@@H]1C[C@@H](O)CN1; NMeF = CN[C@@H](Cc1ccccc1)C(=O)O; dNMeNle = CCCC[C@@H](NC)C(=O)O; NMehSer = CN[C@@H](CCO)C(=O)O; Thr(3ξ) = CC(O)[C@H](N)C(=O)O; NMeNle = CCCC[C@H](NC)C(=O)O; NMeA = CN[C@@H](C)C(=O)O; Orn = NCCC[C@H](N)C(=O)O; Dab = NCC[C@H](N)C(=O)O; Dap = NC[C@H](N)C(=O)O; ξPip = O=C(O)C1CCCCN1; Sar = CNCC(=O)O

How the values were obtained:
Human PD-L1/PD-1 = target: T1, Human PD-L1/PD-1 (Homo sapiens, UniProt Q9NZQ7); assay: HTRF PD-1-Ig/PD-L1-His binding assay (human PD-L1); conditions: cluster symbol; read-out: HTRF IC50 cluster
T1 construct: made in house; host or cells: HEK293T
T1 sequence (Q9NZQ7 with tags, fused parts or gaps): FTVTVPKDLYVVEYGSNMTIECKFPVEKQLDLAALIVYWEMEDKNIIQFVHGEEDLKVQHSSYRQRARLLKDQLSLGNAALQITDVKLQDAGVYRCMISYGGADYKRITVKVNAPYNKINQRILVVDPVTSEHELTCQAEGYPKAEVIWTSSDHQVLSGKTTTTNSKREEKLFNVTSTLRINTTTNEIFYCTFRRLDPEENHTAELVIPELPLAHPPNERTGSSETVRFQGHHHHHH
In short: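 The time-resolved fluorescence signal comes from Eu-cryptate anti-Ig (1 nM) and APC anti-His (20 nM) antibodies bound to a PD-1-Ig/PD-L1-His complex. Both partners lack transmembrane regions.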

[1] = target: T2, LK35.2-hPD-L1 cells / PE-labeled PD-1-Ig (Homo sapiens, UniProt Q9NZQ7); assay: LK35.2-hPD-L1 cell binding high-content screening assay; type: cell-based; conditions: cluster symbol, read-out: CBA IC50 cluster
T2 construct: expressed in transfected cells; host or cells: LK35.2 mouse B cell line
T2 sequence (Q9NZQ7 19-290): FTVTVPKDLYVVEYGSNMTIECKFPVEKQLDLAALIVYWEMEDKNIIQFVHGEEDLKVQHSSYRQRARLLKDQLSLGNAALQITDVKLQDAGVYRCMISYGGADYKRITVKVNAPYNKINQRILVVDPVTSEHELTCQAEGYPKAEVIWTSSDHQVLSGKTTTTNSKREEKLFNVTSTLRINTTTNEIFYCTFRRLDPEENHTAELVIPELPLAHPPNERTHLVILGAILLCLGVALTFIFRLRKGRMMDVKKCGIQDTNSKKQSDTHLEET
In short: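 Compound effect on PD-1/PD-L1 binding is measured by imaging cell-associated phycoerythrin signal. Human PD-1-Ig (PE on Ig tag, 1 nM final) is applied with compound to a murine B cell line overexpressing human PD-L1 for 1 h at 37 °C in serum-containing RPMI.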

[2] = cell binding assay, cell line not given
[3] = cell line of CBA not given (LK35.2-hPD-L1 or 293T-hPD-L1)

| Compound | IC50 (Human PD-L1/PD-1) [nM] | IC50 [1, 2] [nM] | IC50 [1, 3] [nM] |
| --- | --- | --- | --- |
| CCCC[C@H]1C(=O)N(C)[C@@H](CCCC)C(=O)N[C@@H](CC(C)C)C(=O)N[C@H](C(=O)NCC(N)=O)CSCC(=O)N[C@@H](Cc2ccc(O)cc2)C(=O)N(C)[C@@H](C)C(=O)N[C@@H](CCN)C(=O)N2CCC[C@H]2C(=O)N[C@@H](Cc2c[nH]cn2)C(=O)N[C@@H](CCC(=O)O)C(=O)N2C[C@H](O)C[C@H]2C(=O)N[C@@H](Cc2c[nH]c3ccccc23)C(=O)N[C@@H](CCN)C(=O)N[C@@H](Cc2c[nH]c3ccccc23)C(=O)N1C [Example 5090] ({CH2CO}-Y[NMeA][Dab]PHE[Hyp]W[Dab]W[NMeNle][NMeNle]LCG-NH2; thioether N-14) | 0.385 to 6.74 | 4.78 to 72.9 |  |
| CCCC[C@H]1C(=O)N(C)[C@@H](CCCC)C(=O)N[C@@H](CCCNC(=N)N)C(=O)N[C@H](C(=O)NCC(N)=O)CSCC(=O)N[C@@H](Cc2ccccc2)C(=O)N(C)[C@@H](C)C(=O)N[C@@H](CC(N)=O)C(=O)N2CCC[C@H]2C(=O)N[C@@H](Cc2cnc[nH]2)C(=O)N[C@@H](CC(C)C)C(=O)N(C)CC(=O)N[C@@H](Cc2c[nH]c3ccccc23)C(=O)N[C@@H](CN)C(=O)N[C@@H](Cc2c[nH]c3ccccc23)C(=O)N1C [Example 5002] ({CH2CO}-F[NMeA]NPHL[Sar]W[Dap]W[NMeNle][NMeNle]RCG-NH2; thioether N-14) | > 30.5 | > 74.3 |  |
| CCCC[C@H]1C(=O)N(C)[C@@H](CCCC)C(=O)N[C@@H](CCCNC(=N)N)C(=O)N[C@H](C(=O)NCC(N)=O)CSCC(=O)N[C@@H](Cc2ccc(O)cc2)C(=O)N(C)[C@@H](C)C(=O)N[C@@H](CC(N)=O)C(=O)N2CCC[C@H]2C(=O)N[C@@H](CN)C(=O)N[C@@H](CCC(=O)O)C(=O)N2CCC[C@H]2C(=O)N[C@@H](Cc2c[nH]c3ccccc23)C(=O)N[C@@H](CO)C(=O)N[C@@H](Cc2csc3ccccc23)C(=O)N1C [Example 1127] ({CH2CO}-Y[NMeA]NP[Dap]EPWS[Bta][NMeNle][NMeNle]RCG-NH2; thioether N-14) | 0.385 to 6.74 |  | 0.158 to 4.71 |
| CCCC[C@H]1C(=O)N(C)CC(=O)N[C@@H](CC(=O)O)C(=O)N[C@@H](C(C)C)C(=O)N[C@@H](Cc2ccc(F)cc2)C(=O)N[C@@H](Cc2ccc(O)cc2)C(=O)N(C)CC(=O)N[C@@H](Cc2c[nH]c3ccccc23)C(=O)N[C@@H](Cc2ccc(O)cc2)C(=O)N[C@@H](CC(C)C)C(=O)N[C@H](C(=O)NCC(N)=O)CSCC(=O)N[C@@H](Cc2ccccc2)C(=O)N(C)[C@@H](Cc2ccccc2)C(=O)N1C [Example 3570] ({CH2CO}-F[NMeF][NMeNle][Sar]DV[Phe(4-F)]Y[Sar]WYLCG-NH2; thioether N-13) | > 30.5 | > 74.3 |  |
| CCCC[C@H]1C(=O)N(C)CC(=O)N[C@@H](CC(=O)O)C(=O)N[C@@H](C(C)C)C(=O)N(C)[C@@H](Cc2ccccc2)C(=O)N[C@@H](Cc2ccc(CN)cc2)C(=O)N(C)CC(=O)N[C@@H](Cc2csc3ccccc23)C(=O)N[C@@H](Cc2ccc(O)cc2)C(=O)N[C@@H](CC(C)C)C(=O)N[C@H](C(=O)NCC(N)=O)CSCC(=O)N[C@@H](Cc2cccc(F)c2)C(=O)N(C)[C@@H](Cc2ccccc2)C(=O)N1C [Example 3121] ({CH2CO}-[Phe(3-F)][NMeF][NMeNle][Sar]DV[NMeF][Phe(4-CH2NH2)][Sar][Bta]YLCG-NH2; thioether N-13) | 6.76 to 30.3 |  | 0.158 to 4.71 |
| CCCC[C@H]1C(=O)N(C)CC(=O)N[C@@H](CC(=O)O)C(=O)N[C@@H](C(C)C)C(=O)N(C)[C@@H](Cc2ccccc2)C(=O)N[C@@H](Cc2ccc(CN)cc2)C(=O)N(C)CC(=O)N[C@@H](Cc2c[nH]c3ccccc23)C(=O)N[C@@H](Cc2ccc(O)cc2)C(=O)N[C@@H](CC(C)C)C(=O)N[C@H](C(=O)NCC(N)=O)CSCC(=O)N[C@@H](Cc2ccccc2)C(=O)N(C)[C@@H](Cc2ccccc2)C(=O)N1C [Example 3524] ({CH2CO}-F[NMeF][NMeNle][Sar]DV[NMeF][Phe(4-CH2NH2)][Sar]WYLCG-NH2; thioether N-13) | 6.76 to 30.3 | 0.158 to 4.71 |  |
| CCCC[C@H]1C(=O)N(C)[C@@H](CCOC)C(=O)N[C@@H](CCCNC(=N)N)C(=O)N[C@H](C(=O)NCC(N)=O)CSCC(=O)N[C@@H](Cc2ccc(O)cc2)C(=O)N(C)[C@@H](C)C(=O)N[C@@H](CC(N)=O)C(=O)N2CCC[C@H]2C(=O)N[C@@H](Cc2cnc[nH]2)C(=O)N[C@@H](CC(C)C)C(=O)N2C[C@H](O)C[C@@H]2C(=O)N[C@@H](Cc2c[nH]c3ccccc23)C(=O)N[C@@H](CO)C(=O)N[C@@H](Cc2csc3ccccc23)C(=O)N1C [Example 9006] ({CH2CO}-Y[NMeA]NPHL[d(cisHyp)]WS[Bta][NMeNle][NMehSer](Me)RCG-NH2; thioether N-14) | 0.385 to 6.74 | 0.158 to 4.71 |  |
| CCCC[C@H]1C(=O)N(C)CC(=O)N[C@@H](CC(=O)O)C(=O)N[C@@H](C(C)C)C(=O)N(C)[C@@H](Cc2ccccc2)C(=O)N[C@@H](Cc2ccc(O)cc2)C(=O)N(C)CC(=O)N[C@@H](CCC(=O)O)C(=O)N[C@@H](Cc2ccc(O)cc2)C(=O)N[C@@H](CC(C)C)C(=O)N[C@H](C(=O)NCC(N)=O)CSCC(=O)N[C@@H](Cc2ccccc2)C(=O)N(C)[C@@H](Cc2ccccc2)C(=O)N1C [Example 3072] (HELM PEPTIDE1{[O=C(C[*:3])[*:2]].F.[meF].[CCCC[C@@H](C(=O)[*:2])N(C)[*:1]].[Sar].D.V.[meF].Y.[Sar].E.Y.L.C.G.[am]}$PEPTIDE1,PEPTIDE1,1:R3-14:R3$$$V2.0) | > 30.5 |  | > 74.3 |
| CCCC[C@H]1C(=O)N(C)[C@@H](CCCC)C(=O)N[C@@H](CCCNC(=N)N)C(=O)N[C@H](C(=O)NCC(N)=O)CSCC(=O)N[C@@H](Cc2ccccc2)C(=O)N(C)[C@@H](C)C(=O)N[C@@H](CO)C(=O)N2CCC[C@H]2C(=O)N[C@@H](Cc2cnc[nH]2)C(=O)N[C@@H](CC(C)C)C(=O)N(C)CC(=O)N[C@@H](Cc2c[nH]c3ccccc23)C(=O)N[C@@H](CO)C(=O)N[C@@H](Cc2c[nH]c3ccccc23)C(=O)N1C [Example 5019] ({CH2CO}-F[NMeA]SPHL[Sar]WSW[NMeNle][NMeNle]RCG-NH2; thioether N-14) | 6.76 to 30.3 | 4.78 to 72.9 |  |
| CCCC[C@H]1C(=O)N(C)[C@@H](CCCC)C(=O)NCC(=O)N[C@H](C(=O)NCC(N)=O)CSCC(=O)N[C@@H](Cc2ccccc2)C(=O)N(C)[C@@H](C)C(=O)N[C@@H](CC(N)=O)C(=O)N2CCC[C@H]2C(=O)N[C@@H](Cc2cnc[nH]2)C(=O)N[C@@H](CC(C)C)C(=O)N(C)CC(=O)N[C@@H](Cc2c[nH]c3ccccc23)C(=O)N[C@@H](CO)C(=O)N[C@@H](Cc2c[nH]c3ccccc23)C(=O)N1C [Example 5015] ({CH2CO}-F[NMeA]NPHL[Sar]WSW[NMeNle][NMeNle]GCG-NH2; thioether N-14) | 6.76 to 30.3 | 4.78 to 72.9 |  |
| CCCC[C@H]1C(=O)N(C)[C@@H](CCCC)C(=O)N[C@@H](CCCN)C(=O)N[C@H](C(=O)NCC(N)=O)CSCC(=O)N[C@@H](Cc2ccc(O)cc2)C(=O)N(C)[C@@H](C)C(=O)N[C@@H](CC(N)=O)C(=O)N2CCC[C@H]2C(=O)N[C@@H](CN)C(=O)N[C@@H](CC(=O)O)C(=O)N2C[C@H](O)C[C@H]2C(=O)N[C@@H](Cc2c[nH]c3ccccc23)C(=O)N[C@@H](CCN)C(=O)N[C@@H](Cc2csc3ccccc23)C(=O)N1C [Example 1186] ({CH2CO}-Y[NMeA]NP[Dap]D[Hyp]W[Dab][Bta][NMeNle][NMeNle][Orn]CG-NH2; thioether N-14) | 0.385 to 6.74 |  | 0.158 to 4.71 |
| CCCC[C@H]1C(=O)N(C)CC(=O)N[C@@H](CC(=O)O)C(=O)N[C@@H](C(C)C)C(=O)N(C)[C@@H](Cc2ccccc2)C(=O)N[C@@H](Cc2ccc(O)cc2)C(=O)N(C)CC(=O)N[C@@H](Cc2c[nH]c3ccccc23)C(=O)N[C@@H](Cc2ccc(O)cc2)C(=O)N[C@@H](CC(C)C)C(=O)N[C@H](C(=O)NCC(N)=O)CSCC(=O)N[C@@H](Cc2c(F)c(F)c(F)c(F)c2F)C(=O)N(C)[C@@H](Cc2ccccc2)C(=O)N1C [Example 3078] ({CH2CO}-[Phe(F5)][NMeF][NMeNle][Sar]DV[NMeF]Y[Sar]WYLCG-NH2; thioether N-13) | > 30.5 |  | > 74.3 |
| CCCC[C@H]1C(=O)N(C)[C@@H](CCCC)C(=O)N[C@@H](CCCNC(=N)N)C(=O)N[C@H](C(=O)NCC(N)=O)CSCC(=O)N[C@@H](Cc2ccccc2)C(=O)N(C)[C@@H](C)C(=O)N[C@@H](CC(N)=O)C(=O)N2CCC[C@H]2C(=O)N[C@@H](Cc2cnc[nH]2)C(=O)N[C@@H](C(C)O)C(=O)N(C)CC(=O)N[C@@H](Cc2c[nH]c3ccccc23)C(=O)N[C@@H](CO)C(=O)N[C@@H](Cc2c[nH]c3ccccc23)C(=O)N1C (stereo partly shown) [Example 6005] ({CH2CO}-F[NMeA]NPH[Thr(3ξ)][Sar]WSW[NMeNle][NMeNle]RCG-NH2; thioether N-14) | 6.76 to 30.3 | 4.78 to 72.9 |  |
| CCCC[C@@H]1C(=O)N(C)[C@H](CCCC)C(=O)N[C@@H](CCCNC(=N)N)C(=O)N[C@@H](C(=O)NCC(N)=O)CSCC(=O)N[C@@H](Cc2ccc(O)cc2)C(=O)N2CCCCC2C(=O)N[C@H](CCC(=O)O)C(=O)N2CCC[C@H]2C(=O)N[C@H](Cc2c[nH]cn2)C(=O)N[C@@H](CCCN)C(=O)N2C[C@H](O)CC2C(=O)N[C@H](Cc2c[nH]c3ccccc23)C(=O)N[C@@H](CO)C(=O)N[C@@H](Cc2c[nH]c3ccccc23)C(=O)N1C (stereo partly drawn) [Example 1217] ({CH2CO}-Y[ξPip][dE]P[dH][Orn][ξPro(4R-OH)][dW]SW[dNMeNle][dNMeNle]R[dC]G-NH2; thioether N-14) | 6.76 to 30.3 |  | 4.78 to 72.9 |
